# Laboratory results published in patent US10220069B2, “Compositions and methods for treating diabetes” (THE JOHNS HOPKINS UNIVERSITY, priority 2014, dated 2019).
# Where no end group is shown, it is not given here.
# Legend:
# [1] = target: T1, GPR54 (Mus musculus, UniProt Q91V45); assay: Glucose tolerance in db/db diabetic mice treated with K234; format: in vivo
# T1 construct: Mouse brain, mouse islets, insulinoma cells, and human islets express Kiss1R; from tissue; host or cells: isolated mouse pancreatic islets (WT / Kiss1Rfl/fl, C57Bl/6 background)
# Description: (§1) Accordingly, based on the above outlined considerations on β-cell dysfunction and hyperglucagonemia, we reasoned that glucagon receptor-mediated signaling in the liver is required to initiate β-cell dysfunction and to impair glucose-stimulated insulin secretion. We therefore inducibly disinhibited cAMP-PKA signaling in vivo in adult mouse liver by ablating hepatic protein kinase A regulatory subunit 1A (prkar1a) by adenovirus mediated hepatic CRE recombinase transduction in floxed prkar1a mice (L-Δprkar1a mice) 14 (FIG. 22A). Upregulation of hepatic cAMP-PKA signaling within 3 days stimulated hepatic gluconeogenesis causing increase in fasting glucose levels and insufficient insulin secretion to correct glycemia. Conversely, identical baseline fasting glycemia achieved in mice by continuous exogenous glucose infusion for 3 days 15 (D-glucose mice) was associated with increased insulin secretion and relatively mild impairment of glucose tolerance despite continued exogenous glucose infusions (FIG. 22B). Differential hepatic gene expression analysis between these two mouse models identified the gene encoding the secreted neuropeptide kisspeptin-1 (Kiss1) to be markedly elevated (8× on mRNA array, 15× on qRT-PCR) in L-Δprkar1a but not in D-glucose mice (FIG. 22C). […] The kisspeptin receptor Gpr54 expression was detected at significant levels in pancreatic islets (FIG. 26). […]
# [2] = target: T1, GPR54; assay: GSIS from WT islets exposed to K10 or diabetic mouse serum with K234; format: cell-based
# Description: as §1
# [3] = intravenous bolus, circulating kisspeptin not measured; cited from earlier work
# [4] = test system: Kiss1; assay: ip insulin in L-Δprkar1a mice: hepatic Kiss1; format: in vivo, mouse; settings: 1 IU/kg ip, within 60 min
# Method: Consistent with these observations of insulin counterregulation of PKA-mediated Kiss1 stimulation, in vivo ip insulin (1 IU/kg) administration in L-Δprkar1a mice to supplement relatively deficient endogenous serum insulin concentrations and to achieve blood glucose reduction, decreased hepatic Kiss1 mRNA and protein levels within 60 min (FIGS. 8I-8K).
# [5] = test system: Kiss1; assay: Kiss1 expression in primary mouse hepatocytes; format: cell-based; settings: for Kiss1 expression / Pck1 expression: primary mouse hepatocytes, glucagon 200 pg/ml, insulin 2000 pg/ml; for Kiss1 expression: 2 hr
# Method: Cell Culture Studies. Mouse primary hepatocytes were isolated and cultured as described (He et al., 2009). H2.35 hepatoma cell line was cultured and transfected as described (He et al., 2009). 1 kb of the 5' untranslated region of the mouse Kiss1 gene were cloned by PCR into pGL4. The CRE half sites (TGCAT) within the promoter region were mutated by site directed mutagenesis to (TATGT). Luciferase activity was measured in cell lysates using a luminometer (Berthold) after treatment each for 2 hours with forskolin/IBMX (100 μM each) or glucagon (200 pg/ml) or/and insulin (2000 pg/ml). Dominant-negative A-CREB (Ahn et al., 1998) and WT CREB were from Addgene. Constitutively active CREB […] (Du et al., 2000) was generated by site directed mutagenesis of WT CREB. Glucagon Stimulates Hepatic Kiss1 Expression Via Gcgr and cAMP-PKA-CREB Signaling. We next examined whether glucagon directly stimulates hepatic kisspeptin1 production. Glucagon treatment (200 pg/ml) of primary mouse hepatocytes stimulated within 2 hr Kiss1 expression and protein (FIGS. 2A-2C).
# [6] = test system: mouse Kiss1 promoter; assay: Kiss1 promoter luciferase reporter in H2.35 hepatoma cells; format: cell-based; settings: 1 kb mouse Kiss1 promoter
# Method: Cell Culture Studies. Mouse primary hepatocytes were isolated and cultured as described (He et al., 2009). H2.35 hepatoma cell line was cultured and transfected as described (He et al., 2009). 1 kb of the 5' untranslated region of the mouse Kiss1 gene were cloned by PCR into pGL4. The CRE half sites ([…]) within the promoter region were mutated by site directed mutagenesis to (TATGT). Luciferase activity was measured in cell lysates using a luminometer (Berthold) after treatment each for 2 hours with forskolin/IBMX (100 μM each) or glucagon (200 pg/ml) or/and insulin (2000 pg/ml). Dominant-negative A-CREB (Ahn et al., 1998) and WT CREB were from Addgene. Constitutively active CREB […] (Du et al., 2000) was generated by site directed mutagenesis of WT CREB. […] The mouse Kiss1 promoter contains two putative functional cAMP response element (CRE) half-sites (TGACT) (Zhang et al., 2005) located at _127 and _758 bp upstream of the Kiss1 transcription start site. Mutation of either of the CRE half-sites decreased the transcriptional responses to glucagon or to fsk/IBMX, and combined mutation of both CRE half-sites further decreased the responses (FIG. 9A).
# [7] = target: T2, Gcgr (Mus musculus, UniProt Q61606); assay: Intraperitoneal glucagon: hepatic kisspeptin1 production; format: in vivo
# T2 construct: endogenous in cells; host or cells: live mice (WT, Gcgrfl/fl, HFD-fed C57Bl/6, Lepr db/db); hepatic receptor
# Method: (§2) Intraperitoneal glucose tolerance (ipGTT) and insulin tolerance (ipITT) tests were performed according to standard protocols (Song et al., 2013; Song et al., 2011). After 9 am-3 pm fasting, animals were administered 20% D-glucose (via ip injection), insulin 0.5 U/kg i.p. […] The glucagon receptor antagonist GAI (N-(3-Cyano-6-(1,1-dimethylpropyl)-4,5,6,7-tetrahydro-1-benzothien-2-yl)-2-ethylbutanamide (Qureshi et al., 2004) and its non-active analogue were administered (50 mg/kg i.p. in DMSO) in HFD fed and Lepr^db/db mice 60 min before i. GTT. Intraperitoneal pyruvate converstion (1 g/kg i.p.) test (ipPCT) in ΔL-Prkar1a mice was performed in the fed state (9 am) to avoid any confounding effects of fasting-induced elevated endogenous glucagon levels. Tail-vein blood was collected at the indicated times in figures for glucose and insulin measurements. Serum insulin was measured using mouse magnetic bead panel (Millipore, Luminex). Plasma for glucagon measurements was drawn from mice in the fed state at 9 am, unless otherwise noted for fasting studies. Plasma glucagon (Alpco) and kisspeptin1 (USCN Life Sciences Inc. E92559Ra) were measured by ELISA according to manufacturer's instructions including dilution of samples.
# (§3) Kiss1 transcript was also detectable by qRT-PCR at low levels in spleen, kidney, skeletal muscle, and epididymal fat tissue.
# [8] = test system: Gcgr; assay: as above; format: in vivo, mouse; settings: mice lacking liver Gcgr, ip glucagon
# Method: as §2, §3
# T1 sequence (Q91V45 whole entry): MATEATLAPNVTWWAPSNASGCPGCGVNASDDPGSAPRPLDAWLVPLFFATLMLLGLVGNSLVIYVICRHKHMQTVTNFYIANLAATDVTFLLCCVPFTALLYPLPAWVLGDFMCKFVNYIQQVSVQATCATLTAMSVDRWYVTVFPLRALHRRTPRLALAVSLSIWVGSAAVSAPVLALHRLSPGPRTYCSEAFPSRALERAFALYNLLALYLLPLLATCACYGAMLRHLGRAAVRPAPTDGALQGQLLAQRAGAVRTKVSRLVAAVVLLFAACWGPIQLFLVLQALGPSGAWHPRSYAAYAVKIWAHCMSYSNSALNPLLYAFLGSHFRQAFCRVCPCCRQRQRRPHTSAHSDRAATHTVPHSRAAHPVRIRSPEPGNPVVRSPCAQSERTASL
# T2 sequence (Q61606 27-485): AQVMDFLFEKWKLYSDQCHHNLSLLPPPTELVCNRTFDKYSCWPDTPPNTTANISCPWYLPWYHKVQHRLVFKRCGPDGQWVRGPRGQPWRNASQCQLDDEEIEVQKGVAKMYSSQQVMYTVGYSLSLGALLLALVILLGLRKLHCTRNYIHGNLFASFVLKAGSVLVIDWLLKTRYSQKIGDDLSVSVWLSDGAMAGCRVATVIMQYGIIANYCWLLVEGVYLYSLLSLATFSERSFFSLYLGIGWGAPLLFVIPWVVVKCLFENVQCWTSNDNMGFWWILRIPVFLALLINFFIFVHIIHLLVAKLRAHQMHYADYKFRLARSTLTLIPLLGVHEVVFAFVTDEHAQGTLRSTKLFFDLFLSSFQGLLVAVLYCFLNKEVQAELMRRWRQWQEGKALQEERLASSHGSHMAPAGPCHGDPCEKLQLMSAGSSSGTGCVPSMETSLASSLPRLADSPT
substance,measurement,setting,value
"K234: GPR54 receptor antagonist, Kisspeptin derivative (SEQ ID NOS:36-37; Roseweir et al. 2009)",glucose tolerance,[1],dramatic improvement in glucose tolerance
same,impaired GSIS of WT islets exposed to diabetic serum,"[2]; 10% serum from L-Δprkar1a, db/db and ob/ob mice, co-incubation with K234",recovered
same,effects of K10 on islets (FIG. 27),"[2]; WT islets, K10 10 nM",counteracts effects of k10
"Tyr-Asn-Trp-Asn-Ser-Phe-Gly-Leu-Arg-Phe-NH2 (YNWNSFGLRF-NH2; listed as Homo sapiens) [K10, 10 amino acid C-terminal kisspeptin fragment, GPR54 agonist]",GSIS,[3],stimulate GSIS
insulin,hepatic Kiss1 mRNA and protein levels,[4],decreased
same,glucagon stimulated Kiss1 and Pck1 expression,"[5]; mouse hepatocytes, insulin plus glucagon",dampened
same,Kiss1 expression,[5],reduced basal Kiss1 expression
same,Pck1 expression,[5],also reduced Pck1 expression
glucagon,Kiss1 promoter luciferase reporter activity,[6],transcriptional activation
same,liver Kiss1 transcript and kisspeptin protein in L-ΔInsr mice,[7]; compared to Insrfl/fl mice,dramatically increased
same,hepatic kisspeptin1 production,"[7]; mice, 16 mg/kg ip, 30 min after injection, versus PBS",increased hepatic kisspeptin1 production
same,kisspeptin production in L-ΔGcgr mice,[8],did not change
same,Kiss1 expression,[5],stimulated
same,Pck1 expression,[5],also stimulated
